US20250296938A1, “Compounds that Interact with the Ras Superfamily for the Treatment of Cancers, Inflammatory Diseases, Rasopathies, and Fibrotic Disease” (SHY Therapeutics, LLC, priority 2018, published 2025)
Like-named read-outs stand apart in the source and are kept apart here.

Key:
Assay in all cases: Ras GTP binding domain inhibition assay (Cy3-GTP/Cy5-GTP competition)
KRas G12D mutant = biological target: T1, KRas G12D mutant (Homo sapiens, UniProt P01116, G12D); settings: at 20 μM
T1 construct: fused on or other part: His tag, used for capture on nickel-coated plates
Procedure, shortened: (§1)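 First, His-tagged protein is coated on nickel wells overnight at 4 °C. Next, compound (20 μM single point or serial dilution) is added for 3 h at room temperature, with or without Sos exchange factor in the last hour. Finally, 100 nM labelled GTP binds for 45 min and retained signal is measured.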

Rac-1 = Rac-1 (Homo sapiens, UniProt P63000)
Procedure, shortened: as §1

Rho-A = Rho-A (Homo sapiens, UniProt P61586)
Procedure, shortened: as §1

[1] = with SOS, read-out: KRas G12D mutant + SOS: % inh.
[2] = without SOS, read-out: KRas G12D mutant: % inh.
[3] = with SOS, read-out: Rac-1 + SOS: % inh.
[4] = without SOS, read-out: Rac-1: % inh.
[5] = with SOS, read-out: Rho-A + SOS: % inh.
[6] = without SOS, read-out: Rho-A: % inh.

Row | SMILES | inhibition at 20 µM (KRas G12D mutant; [1]) [%] | inhibition at 20 µM (KRas G12D mutant; [2]) [%] | inhibition at 20 µM (Rac-1; [3]) [%] | inhibition at 20 µM (Rac-1; [4]) [%] | inhibition at 20 µM (Rho-A; [5]) [%] | inhibition at 20 µM (Rho-A; [6]) [%]
1 | Cc1c(-c2ccn(C)n2)sc2nc(-c3nccn3C)nc(NCCCS(C)(=O)=O)c12 [drawing 1051] | 76 to 100 | 76 to 100 | 51 to 75 | 76 to 100 | 51 to 75 | 51 to 75
2 | COc1c(O)nc(-c2ccccn2)nc1Nc1ccccc1 [drawing 1015] | 26 to 50 | 26 to 50 | 51 to 75 | 51 to 75 | 51 to 75 | 51 to 75
3 | COCCNC(=O)c1sc2nc(-c3nccn3C)nc(N[C@@H]3CC[C@H](OC)C3)c2c1-c1ccccc1 [drawing 1060] | 76 to 100 | 76 to 100 | 76 to 100 | 76 to 100 | 76 to 100 | 76 to 100
4 | Cn1ccnc1-c1nc(O)c(O)c(C(=O)N2CCCCC2)n1 [drawing 961] | 1 to 25 | 26 to 50 | 1 to 25 | 51 to 75 | 51 to 75 | 26 to 50
5 | Oc1nc(-c2ncc3n2CCCC3)nc2c(-c3ccccn3)csc12 [drawing 968] | 51 to 75 | 51 to 75 | 76 to 100 | 51 to 75 | 76 to 100 | 26 to 50
6 | CO[C@H]1CC[C@@H](Nc2nc(-c3nccn3C)nc(C(=O)N3CCc4c(O)cccc4C3)c2C)C1 [drawing 1036] | 26 to 50 | 26 to 50 | 51 to 75 | 51 to 75 | 76 to 100 | 51 to 75
7 | COCCNc1nc(-c2cn(C)cn2)nc2sc(-c3cccc(OC)c3Cl)c(-c3ccc(OC)cc3)c12 [drawing 932] | 26 to 50 | 26 to 50 | 51 to 75 | 51 to 75 | 51 to 75 | 51 to 75
8 | Cn1ccnc1-c1nc(O)c(O)c(C(=O)NC2CCC2)n1 [drawing 960] | 26 to 50 | 51 to 75 | 51 to 75 | 76 to 100 | 51 to 75 | 26 to 50
9 | Cc1cnc(-c2nc(O)c3scc(-c4ccccn4)c3n2)n1C [drawing 943] | 1 to 25 | 51 to 75 | 51 to 75 | 1 to 25 | 51 to 75 | 51 to 75
10 | COCCn1cc(Nc2nc(-c3ccccn3)nc(OC)c2OC)cn1 [drawing 928] | 1 to 25 | 1 to 25 | 1 to 25 | 1 to 25 | 0 | 0
11 | COCC(C)Nc1nc(-c2nccn2C)nc2sc(-c3cccc(OC)c3)c(-c3cscn3)c12 (stereo not drawn) [drawing 990] | 51 to 75 | 51 to 75 | 1 to 25 | 26 to 50 | 26 to 50 | 26 to 50
12 | Oc1nc(-c2cn3cccnc3n2)nc2c(-c3ccccn3)csc12 [drawing 983] | 1 to 25 | 1 to 25 | 0 | 0 | 1 to 25 | 26 to 50
13 | Cn1ccnc1-c1nc(O)c(O)c(C(=O)N2CCCC2)n1 [drawing 963] | 1 to 25 | 26 to 50 | 26 to 50 | 51 to 75 | 51 to 75 | 1 to 25
14 | O=C(c1nc(-c2ccccn2)nc(O)c1O)N1CCOCC1 [drawing 935] | 26 to 50 | 26 to 50 | 26 to 50 | 51 to 75 | 26 to 50 | 26 to 50
15 | COCCNc1nc(-c2nccn2C)nc2sc(-c3ccccc3Cl)c(-c3ccc(OC)cc3)c12 [drawing 1011] | 76 to 100 | 26 to 50 | 26 to 50 | 1 to 25 | 0 | 0
16 | Oc1nc(-c2cn3ccccc3n2)nc2c(-c3ccccn3)csc12 [drawing 951] | 1 to 25 | 26 to 50 | 26 to 50 | 1 to 25 | 1 to 25 | 1 to 25
17 | CN(Cc1ccccc1)C(=O)c1nc(-c2ccccn2)nc(O)c1O [drawing 934] | 26 to 50 | 26 to 50 | 26 to 50 | 51 to 75 | 51 to 75 | 51 to 75
18 | COc1c(O)nc(-c2ccccn2)nc1Oc1ccc(C(=O)N(C)C)cc1 [drawing 1014] | 26 to 50 | 51 to 75 | 51 to 75 | 51 to 75 | 51 to 75 | 51 to 75
19 | COCCn1ccnc1-c1nc(O)c2scc(-c3ccccn3)c2n1 [drawing 987] | 51 to 75 | 76 to 100 | 76 to 100 | 76 to 100 | 51 to 75 | 51 to 75
20 | CC(C)NC(=O)c1nc(-c2nccn2C)nc(O)c1O [drawing 965] | 26 to 50 | 51 to 75 | 51 to 75 | 51 to 75 | 76 to 100 | 51 to 75

Results, then the compound that gave them:

Row | inhibition at 20 µM (KRas G12D mutant; [1]) [%] | inhibition at 20 µM (KRas G12D mutant; [2]) [%] | inhibition at 20 µM (Rac-1; [3]) [%] | inhibition at 20 µM (Rac-1; [4]) [%] | inhibition at 20 µM (Rho-A; [5]) [%] | inhibition at 20 µM (Rho-A; [6]) [%] | SMILES
21 | 26 to 50 | 51 to 75 | 26 to 50 | 26 to 50 | 0 | 1 to 25 | COCCCN(C)c1nc(-c2nccn2C)nc2sc(-c3ccn(C)n3)c(-c3ccccc3)c12 [drawing 1000]
22 | 51 to 75 | 51 to 75 | 0 | 0 | 51 to 75 | 51 to 75 | COc1ccc(-c2c(-c3cccc(OC)c3F)sc3nc(-c4nccn4C)nc(N4CCC(OC)C4)c23)cc1 (stereo not drawn) [drawing 941]
23 | 1 to 25 | 26 to 50 | 26 to 50 | 1 to 25 | 51 to 75 | 1 to 25 | COCCNc1nc(-c2nccn2C)nc2sc(-c3cc(OC)ccc3Cl)c(-c3ccccc3)c12 [drawing 1006]
24 | 26 to 50 | 26 to 50 | 26 to 50 | 1 to 25 | 0 | 26 to 50 | CCOC1CCN(c2nc(-c3nccn3C)nc3sc(-c4ccn(C)n4)c(-c4ccccc4)c23)C1 (stereo not drawn)
25 | 26 to 50 | 26 to 50 | 26 to 50 | 26 to 50 | 0 | 0 | COC1CCN(c2nc(-c3nccn3C)nc3sc(-c4ccn(C)n4)c(-c4ccccc4)c23)CC1 [drawing 991]
26 | 1 to 25 | 0 | 0 | 0 | 51 to 75 | 1 to 25 | COCCCNc1nc(-c2nccn2C)nc2sc(-c3ccn(C)n3)c(-c3ccc(OC)cc3)c12 [drawing 1005]
27 | 51 to 75 | 26 to 50 | 26 to 50 | 26 to 50 | 1 to 25 | 1 to 25 | COc1nscc1-c1sc2nc(-c3nccn3C)nc(N3CCC(OC)C3)c2c1-c1ccccc1 (stereo not drawn) [drawing 975]
28 | 51 to 75 | 51 to 75 | 0 | 0 | 26 to 50 | 0 | COC1CCN(c2nc(-c3nccn3C)nc3sc(-c4ccccc4CO)c(-c4ccccc4)c23)C1 (stereo not drawn) [drawing 952]
29 | 51 to 75 | 51 to 75 | 51 to 75 | 76 to 100 | 51 to 75 | 51 to 75 | COC1CCN(c2nc(-c3nccn3C)nc3sc(-c4cccnc4)c(-c4ccccc4)c23)C1 (stereo not drawn) [drawing 979]
30 | 51 to 75 | 26 to 50 | 1 to 25 | 1 to 25 | 26 to 50 | 1 to 25 | COC1CCN(c2nc(-c3nccn3C)nc3sc(Br)c(-c4ccccc4)c23)C1 (stereo not drawn) [drawing 957]
31 | 51 to 75 | 51 to 75 | 51 to 75 | 51 to 75 | 76 to 100 | 76 to 100 | CO[C@H]1C[C@@H](Nc2nc(-c3nccn3C)nc3sc(-c4ccn(C)n4)c(C)c23)C1 [drawing 1049]
32 | 51 to 75 | 51 to 75 | 1 to 25 | 26 to 50 | 76 to 100 | 51 to 75 | COC1CCN(c2nc(-c3nccn3C)nc3sc(-c4ccnn4C)c(-c4ccccc4)c23)C1 (stereo not drawn) [drawing 972]
33 | 51 to 75 | 26 to 50 | 0 | 0 | 26 to 50 | 51 to 75 | COc1ccc(-c2sc3nc(-c4nccn4C)nc(N4CCC(OC)C4)c3c2-c2ccccc2)cn1 (stereo not drawn) [drawing 971]
